Experimental data reported in ChEMBL document CHEMBL3994622, “Design and synthesis of new RAF kinase-inhibiting antiproliferative quinoline derivatives. Part 2: Diarylurea derivatives” (Eur J Med Chem, 2017).

Key:
Type in all cases: functional
MOLT-4 = assay: Growth inhibition of human MOLT4 cells assessed as cell growth at 0.003 uM incubated for 48 hrs by sulforhodamine B assay relative to control; settings: MOLT-4, 48 h, read-out: Activity
NCI-H322M = assay: Growth inhibition of human NCI-H322M cells assessed as cell growth at 0.003 uM incubated for 48 hrs by sulforhodamine B assay relative to control; settings: read-out: Activity
MDA-MB-231 [1] = assay: Growth inhibition of human MDA-MB-231 cells assessed as cell growth at 3 uM incubated for 48 hrs by sulforhodamine B assay relative to control; settings: MDA-MB-231, 48 h, read-out: Activity
SK-OV-3 [2] = assay: Growth inhibition of human SKOV3 cells assessed as cell growth at 0.3 uM incubated for 48 hrs by sulforhodamine B assay relative to control; settings: SK-OV-3, 48 h, read-out: Activity
MCF7 = assay: Growth inhibition of human MCF7 cells assessed as cell growth at 0.003 uM incubated for 48 hrs by sulforhodamine B assay relative to control; settings: MCF7, 48 h, read-out: Activity
KM12 = assay: Growth inhibition of human KM12 cells assessed as cell growth at 0.3 uM incubated for 48 hrs by sulforhodamine B assay relative to control; settings: KM12, 48 h, read-out: Activity
T47D = assay: Growth inhibition of human T47D cells assessed as cell growth at 0.3 uM incubated for 48 hrs by sulforhodamine B assay relative to control; settings: read-out: Activity
NCI/ADR-RES = assay: Growth inhibition of human NCI/ADR-RES cells assessed as cell growth at 0.03 uM incubated for 48 hrs by sulforhodamine B assay relative to control; settings: read-out: Activity
HOP-92 = assay: Growth inhibition of human HOP92 cells assessed as cell growth at 0.003 uM incubated for 48 hrs by sulforhodamine B assay relative to control; settings: HOP-92, 48 h, read-out: Activity
MDA-MB-231 [3] = assay: Growth inhibition of human MDA-MB-231 cells assessed as cell growth at 0.03 uM incubated for 48 hrs by sulforhodamine B assay relative to control; settings: MDA-MB-231, 48 h, read-out: Activity
SF-539 = assay: Growth inhibition of human SF539 cells assessed as cell growth at 0.003 uM incubated for 48 hrs by sulforhodamine B assay relative to control; settings: SF-539, 48 h, read-out: Activity
SK-MEL-2 [4] = assay: Growth inhibition of human SK-MEL-2 cells assessed as cell growth at 0.03 uM incubated for 48 hrs by sulforhodamine B assay relative to control; settings: SK-MEL-2, 48 h, read-out: Activity
U-251 [5] = assay: Growth inhibition of human U251 cells assessed as cell growth at 30 uM incubated for 48 hrs by sulforhodamine B assay relative to control; settings: U-251, 48 h, read-out: Activity
SW-620 [6] = assay: Growth inhibition of human SW620 cells assessed as cell growth at 30 uM incubated for 48 hrs by sulforhodamine B assay relative to control; settings: SW-620, 48 h, read-out: Activity
SK-OV-3 [7] = assay: Growth inhibition of human SKOV3 cells assessed as cell growth at 30 uM incubated for 48 hrs by sulforhodamine B assay relative to control; settings: SK-OV-3, 48 h, read-out: Activity
NCI-H23 [8] = assay: Growth inhibition of human NCI-H23 cells assessed as cell growth at 0.3 uM incubated for 48 hrs by sulforhodamine B assay relative to control; settings: NCI-H23, 48 h, read-out: Activity
786-0 = assay: Growth inhibition of human 786-0 cells assessed as cell growth at 3 uM incubated for 48 hrs by sulforhodamine B assay relative to control; settings: 786-0, 48 h, read-out: Activity
IGROV-1 = assay: Growth inhibition of human IGROV1 cells assessed as cell growth at 30 uM incubated for 48 hrs by sulforhodamine B assay relative to control; settings: IGROV-1, 48 h, read-out: Activity
A549 = assay: Growth inhibition of human A549/ATCC cells assessed as cell growth at 0.003 uM incubated for 48 hrs by sulforhodamine B assay relative to control; settings: A549, 48 h, read-out: Activity
LOX IMVI = assay: Growth inhibition of human LOXIMVI cells assessed as cell growth at 100 uM incubated for 48 hrs by sulforhodamine B assay relative to control; settings: read-out: Activity
HOP-62 = assay: Growth inhibition of human HOP62 cells assessed as cell growth at 100 uM incubated for 48 hrs by sulforhodamine B assay relative to control; settings: HOP-62, 48 h, read-out: Activity
NCI-H23 [9] = assay: Growth inhibition of human NCI-H23 cells assessed as cell growth at 100 uM incubated for 48 hrs by sulforhodamine B assay relative to control; settings: NCI-H23, 48 h, read-out: Activity
TK-10 [10] = assay: Growth inhibition of human TK10 cells assessed as cell growth at 100 uM incubated for 48 hrs by sulforhodamine B assay relative to control; settings: TK-10, 48 h, read-out: Activity
U-251 [11] = assay: Growth inhibition of human U251 cells assessed as cell growth at 1 uM incubated for 48 hrs by sulforhodamine B assay relative to control; settings: U-251, 48 h, read-out: Activity
CAKI-1 = assay: Growth inhibition of human Caki1 cells assessed as cell growth at 10 uM incubated for 48 hrs by sulforhodamine B assay relative to control; settings: CAKI-1, 48 h, read-out: Activity
SK-OV-3 [12] = assay: Growth inhibition of human SKOV3 cells assessed as cell growth at 0.01 uM incubated for 48 hrs by sulforhodamine B assay relative to control; settings: SK-OV-3, 48 h, read-out: Activity
SW-620 [13] = assay: Growth inhibition of human SW620 cells assessed as cell growth at 100 uM incubated for 48 hrs by sulforhodamine B assay relative to control; settings: SW-620, 48 h, read-out: Activity
RXF 393 = assay: Growth inhibition of human RXF393 cells assessed as cell growth at 0.01 uM incubated for 48 hrs by sulforhodamine B assay relative to control; settings: RXF 393, 48 h, read-out: Activity
SK-MEL-2 [14] = assay: Growth inhibition of human SK-MEL-2 cells assessed as cell growth at 100 uM incubated for 48 hrs by sulforhodamine B assay relative to control; settings: SK-MEL-2, 48 h, read-out: Activity
SNB-19 [15] = assay: Growth inhibition of human SNB19 cells assessed as cell growth at 1 uM incubated for 48 hrs by sulforhodamine B assay relative to control; settings: SNB-19, 48 h, read-out: Activity
SNB-75 = assay: Growth inhibition of human SNB75 cells assessed as cell growth at 0.01 uM incubated for 48 hrs by sulforhodamine B assay relative to control; settings: SNB-75, 48 h, read-out: Activity
HCT-15 = assay: Growth inhibition of human HCT15 cells assessed as cell growth at 0.1 uM incubated for 48 hrs by sulforhodamine B assay relative to control; settings: HCT-15, 48 h, read-out: Activity
SNB-19 [16] = assay: Growth inhibition of human SNB19 cells assessed as cell growth at 10 uM incubated for 48 hrs by sulforhodamine B assay relative to control; settings: SNB-19, 48 h, read-out: Activity
OVCAR-8 = assay: Growth inhibition of human OVCAR8 cells assessed as cell growth at 100 uM incubated for 48 hrs by sulforhodamine B assay relative to control; settings: OVCAR-8, 48 h, read-out: Activity
TK-10 [17] = assay: Growth inhibition of human TK10 cells assessed as cell growth at 10 uM incubated for 48 hrs by sulforhodamine B assay relative to control; settings: TK-10, 48 h, read-out: Activity

SMILES | growth at 0.003 µM (MOLT-4) [%] | growth at 0.003 µM (NCI-H322M) [%] | growth at 3 µM (MDA-MB-231 [1]) [%] | growth at 0.3 µM (SK-OV-3 [2]) [%] | growth at 0.003 µM (MCF7) [%] | growth at 0.3 µM (KM12) [%] | growth at 0.3 µM (T47D) [%] | growth at 0.03 µM (NCI/ADR-RES) [%] | growth at 0.003 µM (HOP-92) [%] | growth at 0.03 µM (MDA-MB-231 [3]) [%] | growth at 0.003 µM (SF-539) [%] | growth at 0.03 µM (SK-MEL-2 [4]) [%] | growth at 30 µM (U-251 [5]) [%] | growth at 30 µM (SW-620 [6]) [%] | growth at 30 µM (SK-OV-3 [7]) [%] | growth at 0.3 µM (NCI-H23 [8]) [%] | growth at 3 µM (786-0) [%] | growth at 30 µM (IGROV-1) [%] | growth at 0.003 µM (A549) [%] | growth at 100 µM (LOX IMVI) [%] | further results
COc1cc2cc(Oc3ccc(NC(=O)Nc4ccc(Cl)c(C(F)(F)F)c4)cc3)c(C)nc2cc1OC | 102 | 91 | -29 | 103 | 98 | 96 | 92 | 98 | 92 | 92 | 108 | 97 | -89 | -87 | -51 | 92 | 16 | -42 | 94 | – | –
COc1cc2cc(Oc3ccc(NC(=O)Nc4cc(C(F)(F)F)cc(C(F)(F)F)c4)cc3)c(C)nc2cc1OC | – | – | – | – | – | – | – | – | – | – | – | – | – | – | – | – | – | – | – | -90 | growth at 100 µM (HOP-62): -92%; growth at 100 µM (NCI-H23 [9]): -68%; growth at 100 µM (TK-10 [10]): -95%; growth at 1 µM (U-251 [11]): 55%; growth at 10 µM (CAKI-1): -26%; growth at 0.01 µM (SK-OV-3 [12]): 91%; growth at 100 µM (SW-620 [13]): -66%; growth at 0.01 µM (RXF 393): 100%; growth at 100 µM (SK-MEL-2 [14]): -69%; growth at 1 µM (SNB-19 [15]): 39%; growth at 0.01 µM (SNB-75): 81%; growth at 0.1 µM (HCT-15): 94%; growth at 10 µM (SNB-19 [16]): -79%; growth at 100 µM (OVCAR-8): -43%; growth at 10 µM (TK-10 [17]): -3%
COc1cc2cc(Oc3ccc(NC(=O)Nc4ccc(Cl)c(Cl)c4)cc3)c(C)nc2cc1OC | – | – | – | – | – | – | – | – | – | – | – | – | – | – | – | – | – | – | – | -100 | growth at 100 µM (HOP-62): -100%; growth at 100 µM (NCI-H23 [9]): -59%; growth at 100 µM (TK-10 [10]): -76%; growth at 1 µM (U-251 [11]): 83%; growth at 10 µM (CAKI-1): -18%; growth at 0.01 µM (SK-OV-3 [12]): 103%; growth at 100 µM (SW-620 [13]): -68%; growth at 0.01 µM (RXF 393): 106%; growth at 100 µM (SK-MEL-2 [14]): -100%; growth at 1 µM (SNB-19 [15]): 92%; growth at 0.01 µM (SNB-75): 89%; growth at 0.1 µM (HCT-15): 102%; growth at 10 µM (SNB-19 [16]): 25%; growth at 100 µM (OVCAR-8): -100%; growth at 10 µM (TK-10 [17]): -4%
Cc1nc2cc(O)c(O)cc2cc1Oc1ccc(NC(=O)Nc2ccc(Cl)c(Cl)c2)cc1 | 106 | 103 | 41 | 108 | 94 | 104 | 101 | 97 | 84 | 115 | 102 | 113 | 3 | 16 | 7 | 94 | 98 | 17 | 100 | – | –
